Like-named read-outs stand apart in the source and are kept apart here.
What was measured:
[1] = biological target: T1, wildtype Kras / hSOS1 (Homo sapiens, UniProt P01116); assay: HTRF assay, wildtype Kras / SOS1 interaction; format: binding; details: read-out: IC50 against wildtype Kras
T1 construct: made in house; host or cells: E. coli BL21 (DE3)
Procedure, shortened: (§1)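 Inhibition of wildtype or mutant K-Ras binding to hSOS1 is measured by FRET between antibody-bound Eu donor and XL665 acceptor. Protein levels are matched to the IC50 range under study. The 665/620 nm signal after ≥10 min yields IC50.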

[2] = biological target: GST-tagged K-Ras mutant / His-tagged hSOS1 (Homo sapiens, UniProt P01116); assay: HTRF assay, K-Ras mutant / SOS1 interaction; format: binding; details: read-out: IC50 against mutant Kras
Sequence of GST-tagged K-Ras mutant / His-tagged hSOS1 (P01116 whole entry G12D, form open): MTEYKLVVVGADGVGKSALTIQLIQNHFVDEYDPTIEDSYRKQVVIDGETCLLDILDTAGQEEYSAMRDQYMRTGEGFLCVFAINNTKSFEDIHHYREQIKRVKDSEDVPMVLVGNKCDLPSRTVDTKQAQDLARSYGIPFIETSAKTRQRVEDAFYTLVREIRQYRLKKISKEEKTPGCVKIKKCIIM
Procedure, shortened: as §1

[3] = compound nos. 102-196, general methodology of example 5
[4] = compound nos. 201-213, general methodology of example 5

T1 sequence (P01116 1-188 isoform P01116-2): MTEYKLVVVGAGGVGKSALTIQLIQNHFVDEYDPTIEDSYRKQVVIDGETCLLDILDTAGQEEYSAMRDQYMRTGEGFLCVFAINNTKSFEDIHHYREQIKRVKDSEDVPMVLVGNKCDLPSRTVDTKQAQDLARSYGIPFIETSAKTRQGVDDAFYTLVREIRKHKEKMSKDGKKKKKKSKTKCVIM

IC50 ([1]; compound nos. 401-703) [nM]	IC50 ([2]; compound nos. 401-703) [nM]	SMILES	also measured
> 500	< 500	Cc1ccc2oc(N)nc2c1-c1c(Cl)cc2c(N3CC4CCC(C3)N4)nc(OC[C@@]34CCCN3C[C@H](F)C4)nc2c1F [Compound 546, 4-(4-(3,8-diazabicyclo-[3.2.1]octan-3-yl)-6-chloro-8-fluoro-2-(((2R,7aS)-2-fluorotetrahydro-1H-pyrrol-izin-7a(5H)-yl)methoxy)-quinazolin-7-yl)-5-methyl-benzo[d]oxazol-2-amine]	–
> 500	< 500	N#Cc1c(N)sc2c(F)ccc(-c3c(Cl)cc4c(N5CC6CCC(C5)N6)nc(OC[C@@]56CCCN5C[C@H](F)C6)nc4c3F)c12 [Compound 673, 4-(4-(3,8-diazabicyclo-[3.2.1]octan-3-yl)-6-chloro-8-fluoro-2-(((2R,7aS)-2-fluorotetrahydro-1H-pyrrol-izin-7a(5H)-yl)methoxy)-quinazolin-7-yl)-2-amino-7-fluorobenzo[b]thiophene-3-carbonitrile]	–
–	–	Nc1nc2c(-c3c(Cl)cc4c(N5CCNCC(F)(F)C5)nc(OC[C@@]56CCCN5C[C@H](F)C6)nc4c3F)cccc2o1 [Compound 174, 4-(6-chloro-4-(6,6-difluoro-1,4-diazepan-1-yl)-8-fluoro-2-(((2R,7aS)-2-fluorotetra-hydro-1H-pyrrolizin-7a(5H)-yl)methoxy)quinazolin-7-yl)benzo[d]oxazol-2-amine]	IC50 [1, 3]: < 500 nM; IC50 [2, 3]: < 500 nM
< 500	> 500	Nc1ccc(C2CC2)c(-c2ccc3c(N4CC5CCC(C4)N5)nc(OC[C@@]45CCCN4C[C@H](F)C5)nc3c2F)n1 [Compound 458, 6-(4-(3,8-diazabicyclo-[3.2.1]octan-3-yl)-8-fluoro-2-(((2R,7aS)-2-fluorotetra-hydro-1H-pyrrolizin-7a(5H)-yl)methoxy)quinazolin-7-yl)-5-cyclopropylpyridin-2-amine]	–
–	–	CN1CCC[C@H]1COc1nc(N2CC3CNCC3C2)c2cc(Cl)c(-c3cccc4sc(N)nc34)c(F)c2n1 (stereo partly drawn) [Compound 144, 4-(6-chloro-8-fluoro-4-(hexahydropyrrolo[3,4-c]-pyrrol-2(1H)-yl)-2-(((S)-1-methylpyrrolidin-2-yl)meth-oxy)quinazolin-7-yl)benzo-[d]thiazol-2-amine]	IC50 [1, 3]: > 500 nM; IC50 [2, 3]: > 500 nM
< 500	< 500	N#Cc1c(N)sc2cc(F)cc(-c3c(Cl)cc4c(N5CC6CCC(C5)N6)nc(OC[C@@]56CCCN5C[C@H](F)C6)nc4c3F)c12 [Compound 476, 4-(4-(3,8-diazabicyclo-[3.2.1]octan-3-yl)-6-chloro-8-fluoro-2-(((2R,7aS)-2-fluorotetrahydro-1H-pyrrolizin-7a(5H)-yl)meth-oxy)quinazolin-7-yl)-2-amino-6-fluorobenzo[b]-thiophene-3-carbonitrile]	–
< 500	< 500	N#Cc1c(N)sc2c(F)ccc(-c3c(Cl)cc4c(N5CC6CCC(C5)O6)nc(OC[C@@]56CCCN5C[C@H](F)C6)nc4c3F)c12 [Compound 473, 4-(4-(8-oxa-3-azabicyclo-[3.2.1]octan-3-yl)-6-chloro-8-fluoro-2-(((2R,7aS)-2-fluorotetrahydro-1H-pyrrol-izin-7a(5H)-yl)methoxy)-quinazolin-7-yl)-2-amino-7-fluorobenzo[b]thiophene-3-carbonitrile]	–
< 500	< 500	CN(C)CC1(COc2nc(N3CCNCC(F)(F)C3)c3cc(Cl)c(-c4ccc(F)c5sc(N)nc45)c(F)c3n2)CC1 [Compound 489, 4-(6-chloro-4-(6,6-difluoro-1,4-diazepan-1-yl)-2-((1-((dimethylamino)methyl)-cyclopropyl)methoxy)-8-fluoroquinazolin-7-yl)-7-fluorobenzo[d]thiazol-2-amine]	–
> 500	> 500	CN1CCC[C@H]1COc1nc(N2CCNCC(F)(F)C2)c2cc(Cl)c(-c3cccc4cnc(N)nc34)c(F)c2n1 [Compound 602, 6-chloro-4-(6,6-difluoro-1,4-diazepan-1-yl)-8-fluoro-2-(((S)-1-methylpyrrolidin-2-yl)methoxy)-[7,8′-biquin-azolin]-2′-amine]	–
–	–	Nc1nc2c(-c3c(Cl)cc4c(N5CC6CCC(C5)O6)nc(OC[C@@]56CCCN5C[C@H](F)C6)nc4c3F)ccc(F)c2s1 [Compound 203, 4-(4-(8-oxa-3-azabicyclo[3.2.1]octan-3-yl)-6-chloro-8-fluoro-2-(((2R,7aS)-2-fluorohexahydro-1H-pyrrolizin-7a-yl)methoxy)quinazolin-7-yl)-7-fluorobenzo[d]thiazol-2-amine]	IC50 [1, 4]: < 1500 nM; IC50 [2, 4]: < 1500 nM
< 500	> 500	CN1CCC[C@H]1COc1nc(N2CCCC(C(=O)O)CC2)c2cc(Cl)c(-c3cccc4sc(N)nc34)c(F)c2n1 (stereo partly drawn) [Compound 414, 1-(7-(2-aminobenzo[d]-thiazol-4-yl)-6-chloro-8-fluoro-2-(((S)-1-methyl-pyrrolidin-2-yl)methoxy)-quinazolin-4-yl)azepane-4-carboxylic acid]	–
< 500	< 500	COC1CCCCN(c2nc(OC[C@@H]3CCCN3C)nc3c(F)c(-c4cccc5sc(N)nc45)c(Cl)cc23)C1 (stereo partly drawn) [Compound 474, 4-(6-chloro-8-fluoro-4-(3-methoxyazepan-1-yl)-2-(((S)-1-methylpyrrolidin-2-yl)methoxy)quinazolin-7-yl)benzo[d]thiazol-2-amine]	–
–	–	Cc1ccc2cnn(C)c2c1-c1c(Cl)cc2c(N3CCCCC(F)(F)C3)nc(OC[C@@]34CCCN3C[C@H](F)C4)nc2c1F [Compound 179, 6-chloro-4-(3,3-difluoro-azepan-1-yl)-7-(1,6-dimethyl-1H-indazol-7-yl)-8-fluoro-2-(((2R,7aS)-2-fluoro-tetrahydro-1H-pyrrolizin-7a(5H)-yl)-methoxy)quinazoline]	IC50 [1, 3]: > 500 nM; IC50 [2, 3]: > 500 nM
> 500	< 500	CN(C)CC1(COc2nc(N3C[C@H]4CC[C@@H](C3)N4)c3cc(Cl)c(-c4cc(O)cc5ccccc45)c(F)c3n2)CC1 [Compound 701, 4-(4-((1R,5S)-3,8-diazabicyclo[3.2.1]octan-3-yl)-6-chloro-2-((1-((dimethylamino)methyl)cyclopropyl)methoxy)-8-fluoroquinazolin-7-yl)naphthalen-2-ol]	–
–	–	CO[C@@H]1C[C@@H](COc2nc(N3CCNCC(F)(F)C3)c3cc(Cl)c(-c4cccc5sc(N)nc45)c(F)c3n2)N(C)C1 [Compound 121, 4-(6-chloro-4-(6,6-difluoro-1,4-diazepan-1-yl)-8-fluoro-2-(((2S,4R)-4-methoxy-1-methylpyrrolidin-2-yl)-methoxy)quinazolin-7-yl)-benzo[d]thiazol-2-amine]	IC50 [1, 3]: < 500 nM; IC50 [2, 3]: < 500 nM
–	–	Nc1nc2c(-c3c(Cl)cc4c(N5C[C@H]6CC[C@@H](C5)N6)nc(OCC5(CN6CCCC6)CC5)nc4c3F)ccc(F)c2s1 [Compound 211, 4-(4-((1R,5S)-3,8-diaza-bicyclo[3.2.1]octan-3-yl)-6-chloro-8-fluoro-2-((1-(pyrrolidin-1-ylmethyl)-cyclopropyl)methoxy)quin-azolin-7-yl)-7-fluorobenzo-[d]thiazol-2-amine]	IC50 [1, 4]: < 1500 nM; IC50 [2, 4]: < 1500 nM
> 500	> 500	Nc1cc(-c2c(Cl)cc3c(N4CC5CCC(C4)N5)nc(OCC45CCCN4CCC5)nc3c2F)ccc1F [Compound 627, 5-(4-(3,8-diazabicyclo-[3.2.1]octan-3-yl)-6-chloro-8-fluoro-2-((tetrahydro-1H-pyrrolizin-7a(5H)-yl)meth-oxy)quinazolin-7-yl)-2-fluoroaniline]	–
> 500	> 500	CN(CCC1CCC[N+]1(C)C)c1nc(N2CC3CCC(C2)N3)c2ccc(-c3ccc(F)c4sc(N)nc34)nc2n1 (centres unmarked) [Compound 647, 4-(4-(3,8-diazabicyclo-[3.2.1]octan-3-yl)-2-((2-(1,1-dimethyl-114-pyrrol-idin-2-yl)ethyl)(methyl)-amino)pyrido[2,3-d]pyr-imidin-7-yl)-7-fluoroben-zo[d]thiazol-2-amine]	–
< 500	< 500	CN1CCC[C@H]1COc1nc2c(c(N3CCNCC(F)(F)C3)n1)CCN(c1cc(O)cc3ccccc13)C2 [Compound 419, (S)-4-(4-(6,6-difluoro-1,4-diazepan-1-yl)-2-((1-methylpyrrolidin-2-yl)methoxy)-5,8-dihydropyrido[3,4-d]pyrimidin-7(6H)-yl)naphthalen-2-ol]	–
–	–	CN1CCC[C@H]1COc1nc(N2CCNC(=O)C(F)(F)C2)c2cc(Cl)c(-c3ccc(F)c4sc(N)nc34)c(F)c2n1 [Compound 112, 1-(7-(2-amino-7-fluoro-benzo[d]thiazol-4-yl)-6-chloro-8-fluoro-2-(((S)-1-methylpyrrolidin-2-yl)meth-oxy)quinazolin-4-yl)-6,6-difluoro-1,4-diazepan-5-one]	IC50 [1, 3]: < 500 nM; IC50 [2, 3]: < 500 nM
> 500	> 500	Nc1nc2ccccc2n1-c1ccc2c(N3CC4CCC(C3)N4)nc(OCC34CCCN3CCC4)nc2c1F [Compound 525, 1-(4-(3,8-diazabicyclo-[3.2.1]octan-3-yl)-8-fluoro-2-((tetrahydro-1H-pyrrol-izin-7a(5H)-yl)methoxy)-quin-azolin-7-yl)-1H-benzo-[d]imidazol-2-amine]	–
> 500	> 500	Nc1cc(-c2c(Cl)cc3c(N4CC5CCC(C4)N5)nc(OCC45CCCN4CCC5)nc3c2F)c2ccccc2n1 [Compound 636, 4-(4-(3,8-diazabicyclo-[3.2.1]octan-3-yl)-6-chloro-8-fluoro-2-((tetrahydro-1H-pyrrolizin-7a(5H)-yl)meth-oxy)quinazolin-7-yl)quin-olin-2-amine]	–

Reference: patent US20240254129A1, “HETEROCYCLIC COMPOUNDS AND USES THEREOF” (Kumquat Biosciences Inc., priority 2021, published 2024)
